Data on 3 compounds can be found in patent publication US10065967B2, “Compounds that are ERK inhibitors” (Merck Sharp & Dohme Corp., priority 2013, dated 2018).

Molecules are shown by their SMILES.

Sequence of Active Mouse ERK2 (mERK2) (P63085 whole entry): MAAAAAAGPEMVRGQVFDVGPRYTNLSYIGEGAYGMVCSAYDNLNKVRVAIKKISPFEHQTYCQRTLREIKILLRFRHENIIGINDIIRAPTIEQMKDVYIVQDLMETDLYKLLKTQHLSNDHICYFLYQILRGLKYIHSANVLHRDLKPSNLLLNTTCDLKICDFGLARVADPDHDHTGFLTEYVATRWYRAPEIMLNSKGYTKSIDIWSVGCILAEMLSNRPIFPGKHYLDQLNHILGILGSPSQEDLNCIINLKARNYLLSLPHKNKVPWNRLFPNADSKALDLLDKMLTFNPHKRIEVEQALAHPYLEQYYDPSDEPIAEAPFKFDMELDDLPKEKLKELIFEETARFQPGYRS

For the test, the target named is Active Mouse ERK2 (mERK2) (Mus musculus (Mouse), UniProt P63085). The test can be described thus: Active Mouse ERK2 (mERK2) Activity Assay (IMAP-FP). The test is classed as biochemical. The note with it: phosphorylated active mERK2 0.19 nM, 30 uM ATP, 10 point titration, read-out: ERK 2 MAPK1 Mouse IC50. The method, then:
Active Mouse ERK2 (mERK2) Activity Assay:
Activated ERK2 activity was determined in an IMAP-FP assay (Molecular Devices). Using this assay format, the potency (IC50) of each compound was determined from a 10 point (1:3 serial dilution, 3 μM starting compound concentration) titration curve using the following outlined procedure. To each well of a black Corning 384-well plate (Corning Catalog #3575), 7.5 nL of compound (3333 fold dilution in final assay volume of 25 μL) was dispensed, followed by the addition of 15 μL of kinase buffer (tween containing kinase buffer, Molecular Devices) containing […] (0.316 nM) of phosphorylated active mERK2 enzyme. Following a 15 minute compound & enzyme incubation, each reaction was initiated by the addition of 10 μL kinase buffer containing 2.45 μM ERK2 IMAP substrate peptides (2.25 μM-unlabeled peptide and 200 nM-labeled peptide, and 75 μM ATP. The final reaction in each well of 25 μL consists of 0.19 nM mERK2, 900 nM unlabeled peptide, 80 nM labeled-peptide, and 30 uM ATP. Phosphorylation reactions were allowed to proceed for 45 minutes and were immediately quenched by the addition of 60 μL IMAP detection beads (1:1000 dilutions) in IMAP binding buffer (Molecular Devices) with 24 mM NaCl. Plates were read on EnVision reader after 60 minutes binding equilibration using Fluorescence Polarization protocol (Perkin Elmer).
For the compound `Cc1cc(-c2n[nH]c3cc4[nH]c(=O)c(Cc5ccccc5)cc4cc23)ccn1` [Example 3, 6-benzyl-3-(2-methylpyridin-4-yl)-1,8-dihydro-7H-pyrazolo[4,3-g]quinolin-7-one], the half-maximal inhibitory concentration (IC50) was 0.2 nM. The figure for `Cc1cc(-c2n[nH]c3cc4[nH]c(=O)ccc4cc23)ccn1` [Example 1, 3-(2-methylpyridin-4-yl)-1,8-dihydro-7H-pyrazolo[4,3-g]quinolin-7-one] is 0.4 nM; for `Cc1cc(-c2n[nH]c3cc4[nH]c(=O)c(Br)cc4cc23)ccn1` [Example 2, 6-bromo-3-(2-methylpyridin-4-yl)-1,8-dihydro-7H-pyrazolo[4,3-g]quinolin-7-one] it is 0.2 nM.
